Key:
[1] = Protein binding in mouse serum by ultrafiltration method; type: ADME, cell-free; conditions: read-out: PB (converted)
ASPC1 [2] = test: Cellular uptake in human AsPC1 cells at 15 MBq after 10 mins by gamma counting in presence of PEPT1/2 substrate glycylsarcosine; type: ADME, cell-based; conditions: aspc1, 10 min
[3] = […] in mouse serum after 60 mins by HPLC analysis; type: ADME, cell-free
ASPC1 [4] = test: Cellular uptake in human AsPC1 cells at 15 MBq after 10 mins by gamma counting in presence of beta-transporter substrate GABA; type: ADME, cell-based; conditions: aspc1, 10 min
ASPC1 [5] = test: Cellular uptake in human AsPC1 cells at 15 MBq after 10 mins by gamma counting in presence of aminolevulinic acid; type: ADME, cell-based; conditions: aspc1, 10 min
[6] = target: T1, Delta-aminolevulinic acid dehydratase (Homo sapiens, UniProt P13716); test: Inhibition of ALAD (unknown origin)
T1 sequence (P13716 whole entry): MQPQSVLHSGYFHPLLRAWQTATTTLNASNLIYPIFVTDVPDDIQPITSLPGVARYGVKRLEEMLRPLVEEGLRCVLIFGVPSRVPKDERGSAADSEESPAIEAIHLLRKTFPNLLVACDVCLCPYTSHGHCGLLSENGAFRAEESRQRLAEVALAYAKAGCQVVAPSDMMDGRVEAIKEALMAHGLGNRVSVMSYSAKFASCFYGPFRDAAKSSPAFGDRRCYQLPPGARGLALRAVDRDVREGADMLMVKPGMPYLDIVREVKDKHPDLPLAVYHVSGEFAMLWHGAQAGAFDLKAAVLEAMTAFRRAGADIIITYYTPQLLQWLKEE

ASPC1 [7] = test: Cellular uptake in human AsPC1 cells at 15 MBq by gamma counting; type: ADME, cell-based; conditions: TDE = time-dependent effect

fraction unbound [1]: 0.973
Drug uptake (ASPC1 [2]): Not Active
fraction unbound at 1 h [3]: 0.974
Drug uptake (ASPC1 [4]): Not Active
Drug uptake (ASPC1 [5]): Not Active
Ki [6]: 200 nM
Drug uptake (ASPC1 [7]): tde
Compound: [11CH3]C(N)C(=O)CCC(=O)O (racemic)
